Assay results taken from US12281122B1, “PI3K inhibitors” (Cogent Biosciences, Inc., priority 2023, dated 2025).

How the values were obtained:
[1] = system: SKBR3 (PI3Kα-Wild Type) cell line; assay: HTRF phospho-AKT(S473) cell assay in SKBR3 cells; assay type: cell-based, human
Outline: (§1)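 T47D (PI3Kα-H1047R; RPMI, 10% FBS, insulin) and SKBR3 (wild-type PI3Kα; McCoy's 5A, 10% FBS) cells treated 2 h at 37 °C with 12-point 1:3 dilutions, top 5 μM and 10 μM respectively, ≤0.5% DMSO. SKBR3 stimulated with 70 ng/ml PDGF-BB for the last 15 min; lysate pAKT(S473) by HTRF, IC50 from curves.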

[2] = system: T47D (PI3Kα-H1047R) cell line; assay: HTRF phospho-AKT(S473) cell assay in T47D cells; assay type: cell-based, human
Outline: as §1

[3] = Homo sapiens, SK-BR-3; HTRF phospho-AKT(S473), SKBR3 (PI3Kα-Wild Type) cells, 2 hours compound incubation, PDGF-BB stimulated
[4] = Homo sapiens; HTRF phospho-AKT(S473), T47D (PI3Kα-H1047R) cells, 2 hours compound incubation
[5] = Homo sapiens, SK-BR-3; SKBR3 (PI3Kα-Wild Type) cells, HTRF phospho-AKT(S473), 2 hours compound incubation, PDGF-BB stimulated
[6] = Homo sapiens; T47D (PI3Kα-H1047R) cells, HTRF phospho-AKT(S473), 2 hours compound incubation

Row | IC50 [1, 3] [nM] | IC50 [2, 4] [nM] | IC50 [1, 5] [nM] | IC50 [2, 6] [nM] | SMILES
1 | ≥ 5000 | 250 to 500 | – | – | Cc1cc([C@@H](C)Nc2ccc(Cl)nc2C(=O)NS(C)(=O)=O)c2nc(N3CCC(n4ncc5ccccc54)CC3)n(C)c(=O)c2c1 [Compound 685, (R)-3-((1-(2-(4-(1H-indazol-1-yl)piperidin-1-yl)-3,6-dimethyl-4-oxo-3,4-dihydroquinazolin-8-yl)ethyl)amino)-6-chloro-N-(methylsulfonyl) picolinamide]
2 | – | – | 1000 to 5000 | < 250 | Cc1cc([C@@H](C)Nc2ccc(Cl)nc2C(=O)NS(C)(=O)=O)c2nc(N3CCN(c4cnc(C)cn4)CC3)n(C)c(=O)c2c1 [Compound 369, (R)-6-chloro-3-((1-(3,6-dimethyl-2-(4-(5-methylpyrazin-2-yl)piperazin-1-yl)-4-oxo-3,4-dihydroquinazolin-8-yl)ethyl)amino)-N-(methylsulfonyl) picolinamide]
3 | – | – | ≥ 5000 | 1000 to 5000 | Cc1cc([C@@H](C)Nc2ccc(Cl)nc2C(=O)NS(C)(=O)=O)c2nc(N3Cc4n[nH]c(N)c4C3)n(C)c(=O)c2c1 [Compound 148, (R)-3-((1-(2-(3-amino-2,6-dihydropyrrolo[3,4-c]pyrazol-5(4H)-yl)-3,6-dimethyl-4-oxo-3,4-dihydroquinazolin-8-yl)ethyl)amino)-6-chloro-N-(methylsulfonyl) picolinamide]
4 | ≥ 5000 | 500 to 1000 | – | – | COc1cc(N2C[C@H]3C[C@@H]2CN3c2nc3c([C@@H](C)Nc4ccc(Cl)nc4C(=O)NS(C)(=O)=O)cc(C)cc3c(=O)n2C)ccn1 [Compound 639, 6-chloro-3-(((R)-1-(2-((1R,4R)-5-(2-methoxypyridin-4-yl)-2,5-diazabicyclo [2.2.1]heptan-2-yl)-3,6-dimethyl-4-oxo-3,4-dihydroquinazolin-8-yl)ethyl)amino)-N-(methylsulfonyl) picolinamide]
5 | – | – | 1000 to 5000 | < 250 | Cc1cc([C@@H](C)Nc2ccc(Cl)nc2C(=O)NS(C)(=O)=O)c2nc(N3C[C@@H]4[C@H](C3)[C@H]4c3cnc(C)nc3)n(C)c(=O)c2c1 [Compound 405, 6-chloro-3-(((R)-1-(3,6-dimethyl-2-((1R,5S,6S)-6-(2-methylpyrimidin-5-yl)-3-azabicyclo[3.1.0]hexan-3-yl)-4-oxo-3,4-dihydroquinazolin-8-yl)ethyl)amino)-N-(methylsulfonyl) picolinamide]
6 | – | – | 1000 to 5000 | 250 to 500 | COc1cn(C)nc1C1CCN(c2nc3c([C@@H](C)Nc4ccc(Cl)nc4C(=O)NS(C)(=O)=O)cc(C)cc3c(=O)n2C)CC1 [Compound 316, (R)-6-chloro-3-((1-(2-(4-(4-methoxy-1-methyl-1H-pyrazol-3-yl)piperidin-1-yl)-3,6-dimethyl-4-oxo-3,4-dihydroquinazolin-8-yl)ethyl)amino)-N-(methylsulfonyl) picolinamide]
7 | – | – | 1000 to 5000 | < 250 | Cc1cc([C@@H](C)Nc2ccc(Cl)nc2C(=O)NS(C)(=O)=O)c2nc(N3CCc4c(cnn4C4COC4)C3)n(C)c(=O)c2c1 [Compound 335, (R)-6-chloro-3-((1-(3,6-dimethyl-2-(1-(oxetan-3-yl)-1,4,6,7-tetrahydro-5H-pyrazolo[4,3-c]pyridin-5-yl)-4-oxo-3,4-dihydroquinazolin-8-yl)ethyl)amino)-N-(methylsulfonyl) picolinamide]
8 | ≥ 5000 | 250 to 500 | – | – | Cc1cc([C@@H](C)Nc2ccc(Cl)nc2C(=O)NS(C)(=O)=O)c2nc(N3C[C@H]4C[C@@H]3C[C@H]4c3nn(C)cc3F)n(C)c(=O)c2c1 [Compound 766, 6-chloro-3-(((R)-1-(2-((1R,4S,5R)-5-(4-fluoro-1-methyl-1H-pyrazol-3-yl)-2-azabicyclo[2.2.1]heptan-2-yl)-3,6-dimethyl-4-oxo-3,4-dihydroquinazolin-8-yl)ethyl)amino)-N-(methylsulfonyl) picolinamide]
9 | ≥ 5000 | < 250 | – | – | Cc1cc([C@@H](C)Nc2ccc(Cl)nc2C(=O)NS(C)(=O)=O)c2nc(N3CCN(c4nn(C)cc4F)CC3)n(C)c(=O)c2c1 [Compound 450, (R)-6-chloro-3-((1-(2-(4-(4-fluoro-1-methyl-1H-pyrazol-3-yl)piperazin-1-yl)-3,6-dimethyl-4-oxo-3,4-dihydroquinazolin-8-yl)ethyl)amino)-N-(methylsulfonyl) picolinamide]
10 | ≥ 5000 | 500 to 1000 | – | – | Cc1cc([C@@H](C)Nc2ccc(Cl)nc2C(=O)NS(C)(=O)=O)c2nc(N3CCC[C@@H](c4cnc(C)nc4)C3)n(C)c(=O)c2c1 (relative stereo) [Compound 645, 6-chloro-3-(((R)-1-(3,6-dimethyl-2-((R*)-3-(2-methylpyrimidin-5-yl)piperidin-1-yl)-4-oxo-3,4-dihydroquinazolin-8-yl)ethyl)amino)-N-(methylsulfonyl) picolinamide]
11 | – | – | 1000 to 5000 | 250 to 500 | C[C@@H](Nc1ccc(Cl)nc1C(=O)NS(C)(=O)=O)c1cc(F)cc2c(=O)n(C)c(N3CCC(c4nn(C)cc4F)CC3)nc12 [Compound 364, (R)-6-chloro-3-((1-(6-fluoro-2-(4-(4-fluoro-1-methyl-1H-pyrazol-3-yl)piperidin-1-yl)-3-methyl-4-oxo-3,4-dihydroquinazolin-8-yl)ethyl)amino)-N-(methylsulfonyl) picolinamide]
12 | ≥ 5000 | 1000 to 5000 | – | – | Cc1cc([C@@H](C)Nc2ccc(Cl)nc2C(=O)NS(C)(=O)=O)c2nc(N3CC[C@@H](Oc4ccnnc4)C3)n(C)c(=O)c2c1 [Compound 710, 6-chloro-3-(((R)-1-(3,6-dimethyl-4-oxo-2-((R)-3-(pyridazin-4-yloxy)pyrrolidin-1-yl)-3,4-dihydroquinazolin-8-yl)ethyl)amino)-N-(methylsulfonyl) picolinamide]
13 | 1000 to 5000 | 250 to 500 | – | – | COc1cc([C@H]2[C@@H]3CN(c4nc5c([C@@H](C)Nc6ccc(Cl)nc6C(=O)NS(C)(=O)=O)cc(C)cc5c(=O)n4C)C[C@@H]32)n[nH]1 [Compound 722, 6-chloro-3-(((R)-1-(2-((1R,5S,6R)-6-(5-methoxy-1H-pyrazol-3-yl)-3-azabicyclo[3.1.0]hexan-3-yl)-3,6-dimethyl-4-oxo-3,4-dihydroquinazolin-8-yl)ethyl)amino)-N-(methylsulfonyl) picolinamide]
14 | – | – | 1000 to 5000 | < 250 | Cc1cc([C@@H](C)Nc2ccc(Cl)nc2C(=O)NS(C)(=O)=O)c2nc(N3CCC(n4ccc(N(C)C)n4)CC3)n(C)c(=O)c2c1 [Compound 310, (R)-6-chloro-3-((1-(2-(4-(3-(dimethylamino)-1H-pyrazol-1-yl)piperidin-1-yl)-3,6-dimethyl-4-oxo-3,4-dihydroquinazolin-8-yl)ethyl)amino)-N-(methylsulfonyl) picolinamide]
15 | – | – | 1000 to 5000 | 250 to 500 | COc1cncc(C2CCN(c3nc4c([C@@H](C)Nc5ccc(Cl)nc5C(=O)NS(C)(=O)=O)cc(C)cc4c(=O)n3C)CC2)n1 [Compound 400, (R)-6-chloro-3-((1-(2-(4-(6-methoxypyrazin-2-yl)piperidin-1-yl)-3,6-dimethyl-4-oxo-3,4-dihydroquinazolin-8-yl)ethyl)amino)-N-(methylsulfonyl) picolinamide]
16 | – | – | ≥ 5000 | 250 to 500 | Cc1cc([C@@H](C)Nc2ccc(Cl)nc2C(=O)NS(C)(=O)=O)c2nc(N3CCC[C@H](Oc4cnc(C)cn4)C3)n(C)c(=O)c2c1 [Compound 383, 6-chloro-3-(((R)-1-(3,6-dimethyl-2-((S)-3-((5-methylpyrazin-2-yl)oxy)piperidin-1-yl)-4-oxo-3,4-dihydroquinazolin-8-yl)ethyl)amino)-N-(methylsulfonyl) picolinamide]
17 | – | – | ≥ 5000 | 250 to 500 | Cc1cc([C@@H](C)Nc2ccc(Cl)nc2C(=O)NS(C)(=O)=O)c2nc(N3C[C@@H]4C[C@H](c5cc[nH]n5)[C@H]3C4)n(C)c(=O)c2c1 (relative stereo) [Compound 347, 3-(((R)-1-(2-((1R,4R,6R*)-6-(1H-pyrazol-3-yl)-2-azabicyclo[2.2.1]heptan-2-yl)-3,6-dimethyl-4-oxo-3,4-dihydroquinazolin-8-yl)ethyl)amino)-6-chloro-N-(methylsulfonyl) picolinamide]
18 | – | – | 1000 to 5000 | < 250 | Cc1cc([C@@H](C)Nc2ccc(Cl)nc2C(=O)NS(C)(=O)=O)c2nc(N3C[C@@H]4[C@H](C3)[C@H]4c3cnc(C)cn3)n(C)c(=O)c2c1 [Compound 394, 6-chloro-3-(((R)-1-(3,6-dimethyl-2-((1R,5S,6R)-6-(5-methylpyrazin-2-yl)-3-azabicyclo[3.1.0]hexan-3-yl)-4-oxo-3,4-dihydroquinazolin-8-yl)ethyl)amino)-N-(methylsulfonyl) picolinamide]
19 | – | – | 1000 to 5000 | < 250 | Cc1cc([C@@H](C)Nc2ccc(Cl)nc2C(=O)NS(C)(=O)=O)c2nc(N3CCC[C@H](c4conc4C)C3)n(C)c(=O)c2c1 (relative stereo) [Compound 306, 6-chloro-3-(((R)-1-(3,6-dimethyl-2-((R*)-3-(3-methylisoxazol-4-yl)piperidin-1-yl)-4-oxo-3,4-dihydroquinazolin-8-yl)ethyl)amino)-N-(methylsulfonyl) picolinamide]
20 | ≥ 5000 | 250 to 500 | – | – | COc1nccc(N2C[C@@H]3C[C@H]2CN3c2nc3c([C@@H](C)Nc4ccc(Cl)nc4C(=O)NS(C)(=O)=O)cc(C)cc3c(=O)n2C)n1 [Compound 581, 6-chloro-3-(((R)-1-(2-((1S,4S)-5-(2-methoxypyrimidin-4-yl)-2,5-diazabicyclo [2.2.1]heptan-2-yl)-3,6-dimethyl-4-oxo-3,4-dihydroquinazolin-8-yl)ethyl)amino)-N-(methylsulfonyl) picolinamide]
